Assays:
Type in all cases: in vivo
[1] = tested on: Johnsongrass (Sorghum halepense, SORHA); experiment: Pre-emerge greenhouse herbicide test, phytotoxicity rating; conditions: Sorghum halepense, pre-emergence, 336 h, 14 days after application, rating scale 0-100; for pest or weed control at 125 g/ha: Rate 125 g al/ha; for pest or weed control at 500 g/ha: Rate 500 g al/ha
Method in brief: (§1)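 Seeds sown in sandy loam mix one day before track-sprayer application of compounds in acetone at 125–1000 g ai/ha (187 l/ha), then surface-watered to incorporate and bottom-watered. Visual rating 14 days after application on a 0–100 scale (0 = no damage, 100 = all plants dead).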

[2] = tested on: barnyardgrass (Echinochloa crusgalli, ECHCG); experiment: as above; conditions: Echinochloa crus-galli, pre-emergence, 336 h, 14 days after application, rating scale 0-100; for pest or weed control at 125 g/ha: Rate 125 g al/ha; for pest or weed control at 500 g/ha: Rate 500 g al/ha
Method in brief: as §1

[3] = tested on: green foxtail (Setaria viridis, SETVI); experiment: as above; conditions: Setaria viridis, pre-emergence, 336 h, 14 days after application, rating scale 0-100; for pest or weed control at 125 g/ha: Rate 125 g al/ha; for pest or weed control at 500 g/ha: Rate 500 g al/ha
Method in brief: as §1

[4] = tested on: ivyleaf morningglory (Ipomoea hederacea, IPOHE); experiment: as above; conditions: Ipomoea, pre-emergence, 336 h, 14 days after application, rating scale 0-100; for pest or weed control at 125 g/ha: Rate 125 g al/ha; for pest or weed control at 500 g/ha: Rate 500 g al/ha
Method in brief: as §1

[5] = tested on: lambsquarters (Chenopodium album, CHEAL); experiment: as above; conditions: Chenopodium album, pre-emergence, 336 h, 14 days after application, rating scale 0-100; for pest or weed control at 125 g/ha: Rate 125 g al/ha; for pest or weed control at 500 g/ha: Rate 500 g al/ha
Method in brief: as §1

[6] = tested on: velvetleaf (Abutilon theophrasti, ABUTH); experiment: as above; conditions: Abutilon theophrasti, pre-emergence, 336 h, 14 days after application, rating scale 0-100; for pest or weed control at 125 g/ha: Rate 125 g al/ha; for pest or weed control at 500 g/ha: Rate 500 g al/ha
Method in brief: as §1

[7] = tested on: Johnsongrass (Sorghum halepense, SORHA); experiment: Post-emerge greenhouse herbicide test, phytotoxicity rating; conditions: Sorghum halepense, post-emergence, 336 h, 14 days after application, scale 0-100; for pest or weed control at 63 g/ha: rate 63 g ai/ha; for pest or weed control at 500 g/ha: rate 500 g ai/ha
Method in brief: (§2)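 Compounds in acetone with 0.25% v/v non-ionic surfactant were track-sprayed at 187 l/ha over plants at the 2-3 leaf stage, at 63 to 1000 g ai/ha. Pots were bottom-watered. Injury was scored visually 14 days later on a 0-100 scale, where 0 is no damage and 100 is complete plant death.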

[8] = tested on: barnyardgrass (Echinochloa crusgalli, ECHCG); experiment: as above; conditions: Echinochloa crus-galli, post-emergence, 336 h, 14 days after application, scale 0-100; for pest or weed control at 63 g/ha: rate 63 g ai/ha; for pest or weed control at 500 g/ha: rate 500 g ai/ha
Method in brief: as §2

[9] = tested on: green foxtail (Setaria viridis, SETVI); experiment: as above; conditions: Setaria viridis, post-emergence, 336 h, 14 days after application, scale 0-100; for pest or weed control at 63 g/ha: rate 63 g ai/ha; for pest or weed control at 500 g/ha: rate 500 g ai/ha
Method in brief: as §2

[10] = tested on: ivyleaf morningglory (Ipomoea hederacea, IPOHE); experiment: as above; conditions: Ipomoea, post-emergence, 336 h, 14 days after application, scale 0-100; for pest or weed control at 63 g/ha: rate 63 g ai/ha; for pest or weed control at 500 g/ha: rate 500 g ai/ha
Method in brief: as §2

[11] = tested on: lambsquarters (Chenopodium album, CHEAL); experiment: as above; conditions: Chenopodium album, post-emergence, 336 h, 14 days after application, scale 0-100; for pest or weed control at 63 g/ha: rate 63 g ai/ha; for pest or weed control at 500 g/ha: rate 500 g ai/ha
Method in brief: as §2

[12] = tested on: large crabgrass (Digitaria sanguinalis, DIGSA); experiment: as above; conditions: Digitaria sanguinalis, post-emergence, 336 h, 14 days after application, scale 0-100; for pest or weed control at 63 g/ha: rate 63 g ai/ha; for pest or weed control at 500 g/ha: rate 500 g ai/ha
Method in brief: as §2

[13] = tested on: redroot pigweed (Amaranthus retroflexus, AMARE); experiment: as above; conditions: Amaranthus retroflexus, post-emergence, 336 h, 14 days after application, scale 0-100; for pest or weed control at 63 g/ha: rate 63 g ai/ha; for pest or weed control at 500 g/ha: rate 500 g ai/ha
Method in brief: as §2

[14] = tested on: sicklepod (Cassia obtusifolia, CASOB); experiment: as above; conditions: Senna obtusifolia, post-emergence, 336 h, 14 days after application, scale 0-100; for pest or weed control at 63 g/ha: rate 63 g ai/ha; for pest or weed control at 500 g/ha: rate 500 g ai/ha
Method in brief: as §2

[15] = tested on: velvetleaf (Abutilon theophrasti, ABUTH); experiment: as above; conditions: Abutilon theophrasti, post-emergence, 336 h, 14 days after application, scale 0-100; for pest or weed control at 63 g/ha: rate 63 g ai/ha; for pest or weed control at 500 g/ha: rate 500 g ai/ha
Method in brief: as §2

| SMILES | pest or weed control at 125 g/ha [1] | pest or weed control at 500 g/ha [1] | pest or weed control at 125 g/ha [2] | pest or weed control at 500 g/ha [2] | pest or weed control at 125 g/ha [3] | pest or weed control at 500 g/ha [3] | pest or weed control at 125 g/ha [4] | pest or weed control at 500 g/ha [4] | pest or weed control at 125 g/ha [5] | pest or weed control at 500 g/ha [5] | pest or weed control at 125 g/ha [6] | pest or weed control at 500 g/ha [6] | pest or weed control at 63 g/ha [7] | pest or weed control at 500 g/ha [7] | pest or weed control at 63 g/ha [8] | pest or weed control at 500 g/ha [8] | pest or weed control at 63 g/ha [9] | pest or weed control at 500 g/ha [9] | pest or weed control at 63 g/ha [10] | pest or weed control at 500 g/ha [10] | other results |
| --- | --- | --- | --- | --- | --- | --- | --- | --- | --- | --- | --- | --- | --- | --- | --- | --- | --- | --- | --- | --- | --- |
| Nn1c(C(F)(F)F)cc(=O)n(-c2cc(Oc3ccc(Cl)cn3)c(Cl)cc2F)c1=O [Compound 9-3, 1-Amino-3-[4-chloro-2-fluoro-5-(5-chloro-2-pyridyloxy)phenyl]-6-trifluoromethyl-1,2,3,4-tetrahydropyrimidine-2,4-dione] | 70% | 99% | 30% | 99% | 100% | 100% | 40% | 100% | 100% | 100% | 100% | 100% | 10% | 90% | 0% | 90% | 20% | 95% | 100% | 100% | pest or weed control at 63 g/ha [11]: 95%; pest or weed control at 500 g/ha [11]: 100%; pest or weed control at 63 g/ha [12]: 30%; pest or weed control at 500 g/ha [12]: 95%; pest or weed control at 63 g/ha [13]: 100%; pest or weed control at 500 g/ha [13]: 100%; pest or weed control at 63 g/ha [14]: 20%; pest or weed control at 500 g/ha [14]: 95%; pest or weed control at 63 g/ha [15]: 100%; pest or weed control at 500 g/ha [15]: 100% |
| Nn1c(C(F)(F)F)cc(=O)n(-c2cc(Oc3cccc(Cl)n3)c(Cl)cc2F)c1=O [Compound 9-5, 1-Amino-3-[4-chloro-2-fluoro-5-(6-chloro-2-pyridyloxy)phenyl]-6-trifluoromethyl-1,2,3,4-tetrahydropyrimidine-2,4-dione] | 95% | 100% | 90% | 100% | 100% | 100% | 70% | 50% | 100% | 100% | 100% | 100% | 50% | 100% | 20% | 100% | 30% | 90% | 100% | 90% | pest or weed control at 63 g/ha [11]: 90%; pest or weed control at 500 g/ha [11]: 100%; pest or weed control at 63 g/ha [12]: 0%; pest or weed control at 500 g/ha [12]: 80%; pest or weed control at 63 g/ha [13]: 100%; pest or weed control at 500 g/ha [13]: 100%; pest or weed control at 63 g/ha [14]: 100%; pest or weed control at 500 g/ha [14]: 100%; pest or weed control at 63 g/ha [15]: 90%; pest or weed control at 500 g/ha [15]: 100% |
| Nn1c(C(F)(F)F)cc(=O)n(-c2cc(Oc3nc(F)c(F)cc3F)c(Cl)cc2F)c1=O [Compound 9-6, 1-Amino-3-[4-chloro-2-fluoro-5-(3,5,6-trifluoro-2-pyridyloxy)phenyl]-6-trifluoromethyl-1,2,3,4-tetrahydropyrimidine-2,4-dione] | 90% | 90% | 90% | 100% | 100% | 100% | 90% | 95% | 100% | 100% | 100% | 100% | 100% | 100% | 90% | 100% | 20% | 100% | 100% | 100% | pest or weed control at 63 g/ha [11]: 100%; pest or weed control at 500 g/ha [11]: 100%; pest or weed control at 63 g/ha [12]: 90%; pest or weed control at 500 g/ha [12]: 100%; pest or weed control at 63 g/ha [13]: 100%; pest or weed control at 500 g/ha [13]: 100%; pest or weed control at 63 g/ha [14]: 40%; pest or weed control at 500 g/ha [14]: 100%; pest or weed control at 63 g/ha [15]: 100%; pest or weed control at 500 g/ha [15]: 100% |
| Nn1c(C(F)(F)F)cc(=O)n(-c2cc(Oc3ncccc3C(F)(F)F)c(Cl)cc2F)c1=O [Compound 9-7, 1-Amino-3-[4-chloro-2-fluoro-5-(3-trifluoromethyl-2-pyridyloxy)phenyl]-6-trifluoromethyl-1,2,3,4-tetrahydropyrimidine-2,4-dione] | 90% | 100% | 90% | 100% | 100% | 100% | 70% | 100% | 100% | 100% | 100% | 100% | 80% | 90% | 60% | 70% | 40% | 70% | 100% | 100% | pest or weed control at 63 g/ha [11]: 100%; pest or weed control at 500 g/ha [11]: 100%; pest or weed control at 63 g/ha [12]: 10%; pest or weed control at 500 g/ha [12]: 30%; pest or weed control at 63 g/ha [13]: 100%; pest or weed control at 500 g/ha [13]: 100%; pest or weed control at 63 g/ha [14]: 90%; pest or weed control at 500 g/ha [14]: 90%; pest or weed control at 63 g/ha [15]: 100%; pest or weed control at 500 g/ha [15]: 100% |

— patent US6479435B1, “Diaryl ethers and processes for their preparation and herbicidal and desiccant compositions containing them” (ISK Americas Incorporated, priority 1997, dated 2002)
